We go through five molecules from publication PMC10018702 (Nature chemistry, 2022).

Data set [1] addresses eukaryotic elongation factor-1α (eEF1A) (UniProt P68104). Put plainly: single-molecule FRET chase.
Data set [2] deals with T1, eEF1A ternary complex on human ribosomes (Homo sapiens, UniProt P68104).
T1 sequence (P68104 1-462): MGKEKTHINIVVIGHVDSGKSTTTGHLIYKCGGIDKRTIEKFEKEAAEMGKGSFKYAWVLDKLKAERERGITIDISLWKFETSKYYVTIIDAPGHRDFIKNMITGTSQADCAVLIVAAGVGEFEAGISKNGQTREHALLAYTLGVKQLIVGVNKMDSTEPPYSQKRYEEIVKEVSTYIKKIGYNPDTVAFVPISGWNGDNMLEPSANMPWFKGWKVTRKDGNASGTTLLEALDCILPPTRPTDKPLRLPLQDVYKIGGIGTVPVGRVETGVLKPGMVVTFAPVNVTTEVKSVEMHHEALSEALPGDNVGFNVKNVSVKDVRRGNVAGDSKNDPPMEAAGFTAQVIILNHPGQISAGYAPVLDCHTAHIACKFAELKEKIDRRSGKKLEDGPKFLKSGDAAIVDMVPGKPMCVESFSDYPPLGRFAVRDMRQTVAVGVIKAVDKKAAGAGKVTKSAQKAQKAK
Put plainly: smFRET ternary complex real-time delivery experiment. The format is biochemical. The note with it: 10 μM drug delivered with ternary complex, 25 °C.

In data set [3] the test system is HCT116 cells. Put plainly: OPP incorporation assay. The following applies: HCT116, 24 h continuous treatment, then 1-h OPP pulse.
The test system of data set [4] is cancer cell proliferation. The following applies: cited from earlier work.
For a further data set, the system named is Eμ-Myc/+ lymphoma cells. Put plainly: Eμ-Myc lymphoma allograft model. The note with it: 1.5 or 2.0 mg/kg, intraperitoneal, 3 times per week.
For data set [5] the following is noted: mouse, in vivo, ip, 2 mg/kg.
For data set [6], the target named is T1, eEF1A ternary complex on human ribosomes. Put plainly: smFRET drug chase experiments. The format is binding.
Data set [7] relates to HCT116 cells. The following applies: HCT116, 72 h, alamarBlue. (In general: The colour change of resazurin is a common sign of viable cells or microbes.)
The mark [8] stands for this setting: from rebinding constants, chase with 0-10 μM drug.

The residence time is how long the partners stay bound on average. In turn, ternatin-4 (peptide) registered a residence time in data set [1] of 56 s.
As to ternatin-4 [reference compound], the aa-tRNA accommodation entry in data set [2] is reported as “strongly inhibited”. Moreover, in the data set with HCT116 cells [3], the “potency in protein synthesis inhibition compared with SR-A3” value is “behaved identically”.
Take `C=C[C@H](C)C[C@@H]1NC(=O)[C@H]([C@H](O)C(C)C)N(C)C(=O)[C@H](C)N(C)C(=O)[C@@H]([C@@H](C)CC)NC(=O)[C@@H]([C@H](O)C(C)C)NC(=O)[C@H]2CCCCN2C(=O)[C@H](C)N(C)C1=O` [A3]: in data set [4], the “concentration inhibiting cancer cell proliferation” value is “low nanomolar concentrations”.
Turning to `C=C[C@H](C)C[C@@H]1NC(=O)[C@H]([C@H](O)C(C)C)N(C)C(=O)[C@H](C)N(C)C(=O)[C@@H]([C@@H](C)CC)NC(=O)[C@@H]([C@H](O)C(C)C)NC(=O)[C@H]2CCCCN2C(=O)[C@H](C)N(C)C1=O` [SR-A3], the aa-tRNA accommodation result in data set [2] is “strongly inhibited”. The body weight result in the data set on Eμ-Myc/+ lymphoma cells was “no significant body weight loss”. In the data set with Eμ-Myc/+ lymphoma cells (both dose groups), the tolerability result is “well tolerated”. For the same molecule, in the data set on Eμ-Myc/+ lymphoma cells (n = 5 per group), the “survival of tumor-bearing mice” value is “dramatically prolonged survival”. In data set [5], the “AUCinf, fold higher than ternatin-4” value is on record as ~ 2.1 fold and the “Cmax, fold higher than ternatin-4” value was ~ 1.7 fold. In addition, in data set [6] (setting [8]), the “rebinding to stalled eEF1A-ribosome complex relative to SS-A3” value is on record as “twice as fast” and the “rebinding to stalled eEF1A-ribosome complex relative to ternatin-4” value was “four times as fast”. Also, in data set [6] (washout into drug-free buffer), the “residence time longer than ternatin-4 or SS-A3” value was “about 60%”.
Turning to `C=C[C@H](C)C[C@@H]1NC(=O)[C@H]([C@@H](O)C(C)C)N(C)C(=O)[C@H](C)N(C)C(=O)[C@@H]([C@@H](C)CC)NC(=O)[C@@H]([C@H](O)C(C)C)NC(=O)[C@H]2CCCCN2C(=O)[C@H](C)N(C)C1=O` [SS-A3], the aa-tRNA accommodation result in data set [2] is reported as “strongly inhibited”. The “potency in protein synthesis inhibition compared with SR-A3” value in the data set on HCT116 cells [3] was “slightly less potent”. For the same molecule, the “fold less potent than SR-A3 (HCT116 proliferation IC50)” value in the data set on HCT116 cells [7] is given as ~ 3 fold.
